From publication PMC7156724, “Potent BRD4 inhibitor suppresses cancer cell-macrophage interaction” (Nature Communications, 2020)
Where “and” joins values, the source holds several entries; their conditions need not be identical. Equal entries are not always repeated.

Experiments:
[1] = test system: NCI-H211 small cell lung cancer (SCLC) cells; assay: AlamarBlue assay, NCI-H211; assay type: cell-based; settings: for Cellular activity in SCLCs (H211), alamarBlue: Fig.1e, replicates
Procedure, shortened: (§1)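 BRD4 (BD1+BD2) binding to acetylated histone H4 was measured with a TR-FRET kit per the kit protocol. For the AlamarBlue assays, MDA-MB231, NCI-H211 and A375 cells were plated at ~30% confluence, adhered overnight and treated. Resazurin (0.3 mg/ml reagent) was added for 18 h and fluorescence read at ex 530/em 590 nm.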

[2] = test system: MDA-MB231 triple negative breast cancer (TNBC) cells; assay: AlamarBlue assay, MDA-MB231; assay type: cell-based, human; settings: for Cellular activity in TNBCs (MDA-MB231), alamarBlue: Fig.1f, replicates
Procedure, shortened: as §1

[3] = test system: A375 human melanoma; assay: A375 human melanoma xenograft tumor growth; assay type: in vivo, mouse; settings: Fig.3e, Group 5, 1 mg/kg PO QD, 5 Days on, 2 Days off / week x3, individual animals
Text: PO, oral administration; QD, once daily; BID, twice daily. b–d Tumor growth curves for A2780 ovarian tumor (n = 5) (b), TMD8 large B cell lymphoma (n = 6) (c), and B16F10 melanoma (n = 5) (d) bearing mice treated with the indicated compounds once daily for 11-21 days. e, f Tumor growth curves for A375 melanoma (n = 6) (e), and patient-derived xenograft (PDX) of melanoma (n = 5) (f) bearing mice treated with the indicated compounds once daily (5 days on, 2 days off) for 21 days. For d–f, NHWD-870 used is NHWD-870-HCl synthesized using Suzuki coupling route. Data are presented as mean ± SEM in (a, b, d, f) and mean + SEM in (c, e). p values were calculated using two-tailed, unpaired t tests. *p < 0.05; **p < 0.01; ***p < 0.001. Source data are provided as a Source Data file.
4–6 weeks old female BALB/c nude mice were used for most experiments, with the exception of 6–8 weeks old female C57BL/6 mice were used for B16F10 experiments, and 6–8 weeks old male BALB/c nude mice and SD rats were used for pharmacokinetic experiments. All animals were purchased from Shanghai SIPPR-Bk Lab Animal Co., Ltd. All animals were housed under a regimen of 12 h light/12 h dark cycles and specific pathogen-free conditions. 5×10^6 NCI-H526, ES-2, MDA-MB231, A2780, A375, B16F10, and TMD-8 cells (0.1 ml) were injected subcutaneously into female nude mice. The melanoma patient-derived xenograft model was derived from a human melanoma sample (BRAF, NARS and NF1 wild type, and p53 mutant) removed from a patient in Xiangya Hospital. Surgically removed tumor fragments were implanted subcutaneously into female NSG mice. When the tumors grew to ~1000 mm^3, they were harvested and cryopreserved or immediately re-implanted for expansion or experiments. Mouse body weight and tumor sizes were measured every 3 days. Once the tumors grew to 150–200 mm^3, mice were treated with the compounds as described in the Figures. 1 × 10^6 A2780 cells (1 ml) were injected into the abdominal cavity of nude mice. Ascitic volume and tumor weight were measured by an electronic balance. All the procedures were evaluated and approved by the Institutional Animal Care and Use Committee of Central South University and Yale University. […]
We apologize for not clearly labeling the experiments using compounds synthesized using Suzuki coupling method. In the revised manuscript, we modified the text to clearly mark the animal models in Fig 3d-f were tested using NHWD-870 synthesized using Suzuki […]
compared the activity of NHWD-870 synthesized using Stille coupling route with the NHWD-870 synthesized from Suzuki coupling route (Reviewer Figure 1). […]
activity and possible toxicity were identical.
Reviewer Figure 1 NHWD-870 synthesized through Stille or Suzuki route has similar properties in vivo. Tumor bearing mice were treated with 2mg/kg of the indicated compounds, orally administrated once daily for 21 days. Shown are tumor growth curves (a) and body weight change (b) for A375 melanoma bearing mice. […]
986158 in terms of potency, but apart from with the A375 melanocyte cell line, the advance seems relatively moderate. With such similar compounds, the pharmacokinetic properties and ability to accumulate at the desired site is often more important. Figure S6d (prev. Fig. 3d) in the previous

[4] = test system: H526 tumors; assay: Immunofluorescent staining of cleaved caspase 3 and Ki67 in H526 tumors; assay type: in vivo, mouse; settings: treated H526 tumors, independent images
Experimental: Immunofluorescence staining of tumor sections was performed according to the manufacturer’s instructions. Slides were imaged using a Zeiss Axiovert 200 fluorescence microscope (Carl Zeiss MicroImaging; Thornwood, NY), and images were captured using Openlab3 software (Imprecision, Lexington, MA). Cleaved caspase 3, Ki67, CSF1, and CD68 positive cells were counted with ImageJ version 1.52s[58].
Supplementary Figure 10. NHWD-870 increased tumor apoptosis and inhibite d tumor proliferation.
(a,b) Immunofluorescent staining of cleaved caspase 3 (apoptotic cells, red) and E-Cadherin (cancer cells, […]
green) in vehicle, NHWD-870 or BMS-986158 treated H526 tumors from Figure 4a. Shown are […]
representative images of cleaved caspase 3 positive cells (a) and quantification of cleaved caspase 3 positive […]
cells (b). Scale bar is 30 μm. Data are presented as mean ± SEM from 6 independent images. p values were […]
calculated using two-tailed, unpaired t tests. **, p<0.01; ***, p<0.001. (c,d) Immunofluorescent staining of […]
Ki67 (proliferating cells, red) and E-Cadherin (cancer cells, green) in vehicle, NHWD-870 or BMS-986158 […]
treated H526 tumors from (Figure 4a). Shown are representative images of Ki67 positive cells (c) and […]
quantification of Ki67 positive cells (d). Scale bar is 30 μm. […]
independent images. p values were calculated using two-tailed, unpaired t tests. *, p<0.05; ***, p<0.001. […]

[5] = Body weight change of H526 SCLC tumor bearing mice; settings: for Mouse body weight changes (%) from Day 0: 3mg/kg, QDx21D, 3 mg/kg

In the case of `Cc1nnn(C)c1-c1cnc2c3ccc(C(C)(C)O)cc3n([C@H](c3ccccc3)C3CCOCC3)c2c1` [BMS-986158, reference compound], the “Cellular activity in SCLCs (H211), alamarBlue” value (“Cellular activity in SCLCs” for short) ([1]; concentration 0.0169701) is reported as 0.078 and 7.88, the “Cellular activity in SCLCs” value ([1]; concentration 0.0398488) is reported as 0.019 and 6.06 and the “Cellular activity in SCLCs” value ([1]; concentration 0.137272) is reported as 0.036 and 13.2. For the same compound, the “Cellular activity in SCLCs” value ([1]; concentration 0.614394) was 28.16 and 35.58, the “Cellular activity in SCLCs” value ([1]; concentration 1.09152) was 74.14 and 79.88 and the “Cellular activity in SCLCs” value ([1]; concentration 1.56864) was 88.17 and 88.8. The “Cellular activity in SCLCs” value ([1]; concentration 2.04576) was 89.55 and 89.3, the “Cellular activity in SCLCs” value ([1]; concentration 3) was 86.89 and 89.73 and the “Cellular activity in SCLCs” value ([1]; concentration column prints 2.52288) was 87.67 and 88.48. For the same compound, the IC50 ([1]; Homo sapiens, NCI-H211, 72 h, 72 h treatment, nM, read-out: IC50, cellular activity in NCI-H211 (alamarBlue)) was 6.6 nM, the “Cellular activity in TNBCs (MDA-MB231), alamarBlue” value (“Cellular activity in TNBCs” for short) ([2]; concentration 0.15) was 20.45 and 20.15 and the “Cellular activity in TNBCs” value ([2]; concentration 0.6) was 51.35 and 50.6. The “Cellular activity in TNBCs” value ([2]; concentration 1) was 73.39 and 72.09, the “Cellular activity in TNBCs” value ([2]; concentration 1.5) was 83.55 and 84.39 and the “Cellular activity in TNBCs” value ([2]; concentration 2) was 88.19 and 87.76. The “Cellular activity in TNBCs” value ([2]; concentration 2.5) was 88.65 and 88.13, the “Cellular activity in TNBCs” value ([2]; concentration 3) was 90.46 and 90.37 and the “Cellular activity in TNBCs” value ([2]; concentration -0.3) was 6.95 and 6.37. The “Cellular activity in TNBCs” value ([2]; concentration -0.9) was 4.15 and 1.05, the IC50 ([2]; Homo sapiens, MDA-MB-231, 72 h, 72 h treatment, nM, read-out: IC50, cellular activity in MDA-MB231 (alamarBlue)) was 5 nM and the “Tumor volume” value ([3]; day 0) was 150.774 mm3 and 118.553 mm3 and 191.653 mm3 and 150.802 mm3 and 127.386 mm3 and 173.315 mm3. For the same compound, the “Tumor volume” value ([3]; day 4) was 190.606 mm3 and 233.18 mm3 and 278.289 mm3 and 235.064 mm3 and 184.498 mm3 and 135.54 mm3, the “Tumor volume” value ([3]; day 7) was 243.772 mm3 and 508.815 mm3 and 374.344 mm3 and 456.749 mm3 and 169.114 mm3 and 146.329 mm3 and the “Tumor volume” value ([3]; day 11) was 541.178 mm3 and 982.065 mm3 and 955.744 mm3 and 627.932 mm3 and 275.862 mm3 and 357.353 mm3. For the same compound, the “Tumor volume” value ([3]; day 14) was 840.395 mm3 and 1426.45 mm3 and 1137.31 mm3 and 1074.5 mm3 and 373.109 mm3 and 473.708 mm3, the “Tumor volume” value ([3]; day 18) was 1260.47 mm3 and 1267.54 mm3 and 1188.69 mm3 and 1129.05 mm3 and 402.127 mm3 and 719.097 mm3 and the “Tumor volume” value ([3]; day 21) was 1603.7 mm3 and 1878.69 mm3 and 1789.35 mm3 and 1645.42 mm3 and 683.962 mm3 and 956.808 mm3. The “% of KI67 (Ki67 positive cells)” value [4] was 15% and 17% and 13% and 16% and 12%, the “Body weight change (%)” value ([5]; 3mg/kg,QD, day 0 and day 20 or the last available data point, individual mice) was -8.559% and -23.2889% and -19.9501% and -12.3957% and the “Mouse body weight changes (%) from Day 0” value ([5]; Day 3, individual mice) was -2.33% and 1.06% and -4.40% and 1.07% and 0.98% and -1.46%. The “Mouse body weight changes (%) from Day 0” value ([5]; Day 7, individual mice) was -0.51% and -2.62% and -8.04% and -1.69% and -7.56% and -3.13%, the “Mouse body weight changes (%) from Day 0” value ([5]; Day 10, individual mice) was 0.08% and -4.17% and 1.65% and -15.38% and -17.07% and -3.30% and the “Mouse body weight changes (%) from Day 0” value ([5]; Day 14, individual mice) was -5.26% and -0.68% and -6.36% and 0.13% and -8.04% and -3.28%. For the same compound, the “Mouse body weight changes (%) from Day 0” value ([5]; Day 17, individual mice) was -6.72% and -1.06% and -1.00% and -0.31% and -23.29% and -5.11%, the “Mouse body weight changes (%) from Day 0” value ([5]; Day 20, individual mice) was -12.40% and -8.56% and -1.00% and 1.16% and -19.95% and the body weight loss ([5]; H526 SCLC tumor bearing mice, 3mg/kg QD) was “about 11%”.
